Test results as given in US4826873A, “2,3-dihydroxy-3-phenyl-N-(2-phenyl-ethyl)-propionic acid amides derivatives thereof” (priority 1986, dated 1989).

Columns and labels:
aminopyrine demethylase = assay: Hepatic aminopyrine demethylase in mice (Table 7); format: in vivo, mice (male Kunming strain)
Procedure: (§1) Male Kunming strain mice weighing 18-22 grams were used throughout the experiments. The compound to be tested was suspended in 5% Tween 80 and given orally by gavage. The vehicle of 5% Tween 80 solution was administered to control mice via the same route. In the vitro experiments,the compound was dissolved in dimethylformamide and added directly into the incubation mixture.
(§2) The liver microsomal cytochrome P-450 plays a key role in the detoxification of xenobiotics. […] Mice were administered 250 mg/kg of the compound once daily for 3 days. The control mice received the vehicle. The mice were killed after fasting overnight. Liver microsomes were prepared and microsomal monooxygenases were determined.

CCl4 intoxicated mice = assay: Effect on SGPT level of CCl4-intoxicated mice (pretreatment, Table 1); format: in vivo, mice (male Kunming strain)
Procedure: as §1
(§3) The parameters adopted for hepatotoxicicity included serum tranaminase (SGPT), liver triglycerides, and pathological examination of liver tissues. The liver lesions were scored mainly by the extent of inflammation and necrosis and graded from 0 to 4.
Mice were divided into several groups.
The control group received the vehicle. The other groups were given two doses of the compound (250 mg/kg) at an interval of 8 h, respectively. All the mice were injected ip 10 ml/kg of 0.1% CCl4 in vegetable oil 24 h after the last administration of the compound. The mice were fasted for 16 h and sacrificed by decapitation. SGPT and liver lipids were determined. A piece of liver was processed into sectins for pathological examination.

[1] = tested on: CCl4 hepatotoxicity in mice; assay: Therapeutic effect on CCl4 (0.15%) hepatotoxicity in mice (Table 2); format: in vivo, mice (male Kunming strain)
Procedure: as §1, §3
In the experiments of anti-CCl4 hepatotoxicity, mice were first injected 10 ml/kg of 0.15% CCl4 in vegetable oil every other day for three doses. The treatment of mice with the compound (250 mg/kg daily) started from the second to fifth day after the first injection of CCl4. The determination of SGPT and pathological examination of liver tissues were performed on day 7 of the experiment.

[2] = tested on: NADPH-cytochrome c reductase; assay: Hepatic NADPH-cytochrome c reductase in mice (Table 7); format: in vivo, mice (male Kunming strain)
Procedure: as §1, §2

[3] = tested on: CCl4-initiated lipid peroxidation of liver microsomes (MDA); assay: CCl4-initiated lipid peroxidation of liver microsomes, MDA formation in vitro (Table 6); format: biochemical, mice (phenobarbital-induced); details: 1 mM compound
Procedure: as §1
(§4) CCl4 hepatotoxicity has been considered to be due to formation of free radicals which initiate lipid peroxidation or covalent binding to macromolecules of microsomes. Thus, the structures and function of cell membranes were destroyed. The effect of the compound on CCl4 induced lipid peroxidation (malonic dialdehyde, MDA, in vitro, and diene conjugates in vivo) and ^14 CCl4 covalent binding to lipids and proteins of microsomes were investigated.
MDA formation: The compound was pre-incubated with NADPH-reduced liver microsomes from phenobarbital-induced mice at 37° C. for 15 minutes, 10 ul of CCl4 (diluted with 20 volume of ethanol) was added into the incubation mixture, reincubated for 20 minutes. The production of MDA was determined by the method of thiobarbituric acid.

microsomal lipids = assay: 14CCl4 covalent binding to microsomal lipids; format: biochemical, mice; details: 1 mM, NADPH-reduced liver microsomes
Procedure: as §1, §4
The condition of incubation was similar to that of MDA production. The compound was pre-incubated with NADPH-reduced liver microsomes for 10 minutes. The final concentration of the compound was 1 mM. ^14 CCl4 0.5 uci was added to the incubation mixture. Incubation was continued for another 60 minutes. The radio-activity of ^14 CCl4 in microsomal lipids and proteins was separated by the method of extraction of diene conjugates and counted by liquid scintillation.

CN(CCc1ccccc1)C(=O)C(O)C(O)c1ccccc1 (stereo not drawn) [Compound, 2,3-dihydroxy-N-methyl-3-phenyl-N-(2-phenylethyl)-propionic acid amide]
Aminopyrine demethylase (aminopyrine demethylase; 250 mg/kg day × 3, control 81 ± 63, P <0.01): 107 ± 5.8 nmol HCHO/min/mg protein | aminopyrine demethylase activity (in words) (aminopyrine demethylase; 250 mg/kg once daily, 3 days): increased significantly | SGPT (X ± SE) (CCl4 intoxicated mice; 250 mg/kg × 2, oral, 0.1% CCl4 10 ml/kg ip 24 h later, 9 per group, control 1678 ± 261, P <0.05): 727 ± 266 unit % | effect on elevated SGPT of CCl4-intoxicated mice (in words) (CCl4 intoxicated mice; 250 mg/kg × 2, CCl4 ip): significantly decreased the elevated SGPT | hepatoprotective action against CCl4 (conclusion, in words) (CCl4 intoxicated mice; mouse, in vivo): has hepatoprotective action against CCl4 | effect on liver lesions (in words) ([1]; 250 mg/kg daily, day 7 examination): no effect on liver lesions | SGPT lowering action (in words) ([1]; 250 mg/kg daily, second to fifth day after first CCl4): significant SGPT lowering action | SGPT (x ± SE) ([1]; 250 mg/kg/day × 4, CCl4 0.15% in vegetable oil 10 ml/kg × 3, 8 per group, control 2695 ± 110, P <0.01): 1801 ± 312 unit % | NADPH-cytochrome C reductase ([2]; 250 mg/kg day × 3, control 103 ± 2.5, P <0.01): 148 ± 2.5 nmol cytochrome c reduced/min/ | NADPH-cytochrome c reductase activity (in words) ([2]; 250 mg/kg once daily, 3 days): increased significantly | Inhibition of MDA [3]: 16.3% | MDA production / lipid peroxidation of microsomes induced by CCl4 (in words) [3]: inhibited MDA production initiated by CCl4 in vitro | MDA production / lipid peroxidation of microsomes induced by CCl4 (in words) ([3]; listed as compound of the general formula (I), R1 =H, R2 =CH3): could inhibit lipid peroxidation | MDA ([3]; number of determinations 3, control 35.5): 29.7 ± 4 OD × 100/1.5 mg | covalent binding of 14CCl4 to microsomal lipids (in words) (microsomal lipids): not inhibited
